Assays:
[1] = system: mononuclear cell fraction of human umbilical cord blood; test: Proliferation-stimulating effect on mononuclear cell fraction of human umbilical cord blood (3H-TdR uptake); type: cell-based; settings: 96 h, percentage of control, 4 days
In short: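 Umbilical cord blood MNF (Lymphoprep) cultured at 1×10^6 cells/ml in RPMI 1640 with 10% autologous plasma with sample for 4 days at 37° C, 5% CO2. 0.5 μCi/well 3H-TdR then added for 8 h, and nuclear uptake measured by liquid scintillation counting.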

[2] = Acute toxicity; type: in vivo; settings: 7 days
Procedure: Test Example 2: Acute Toxicity
0.1, 1.0 or 10 mg/kg of Compound 5 or 33 was intravenously administered to Crj:CD rats (male, 5 weeks old), 6 rats in one group. 7 days after the administration, a toxicity test was carried out.

[3] = Observation of body weight and general condition in monkey; type: in vivo, croo monkey; settings: 1 mg/body i.v.; until 10 days after administration
[4] = Life-span-increasing effect on irradiation of a lethal dose of radiation; type: in vivo, mouse (BDF1); settings: 10 mice/group, 9 Gy X-ray, 0.1 mg/kg i.v. days 0, 4, 8
Procedure: Pharmacological Test 4: Life-Span-Increasing Effect on Irradiation of a Lethal Dose of Radiation
An experiment was carried out by using 6 week old female BDF1 mice purchased from Japan SLC Co., Ltd., with 10 mice made one group.
The entire bodies of the entire body of the mice were irradiated with 9 Gy of X-rays by using a Hitachi X-ray irradiator (MBR-1520R), and the day on which the X-ray was irradiated was referred to as "day 0".

[5] = system: marrow cells (mononuclear cell fraction); test: Effect on marrow cell of monkey (3H-TdR uptake); type: cell-based, croo monkey; settings: Primates, 96 h, percentage of control, 4 days
Procedure: Pharmacological Test 2: Effect on Marrow Cell of Monkey
Marrow cells were prepared from the humerus of a croo monkey, and an MNF obtained by fractionation using a Lymphoprep (Nycomed Pharma AS, Oslo, Norway) was used in the following experiment.
The MNF was suspended in an RPMI 1640 medium added with 10% blood plasma of a croo monkey to make its concentration 1×10^6 cells/ml.
10 μl/well of a sample with a predetermined concentration and 100 μl/well of the above-prepared MNF were placed on a round-bottomed 96 well plate, and incubated under the conditions of 37° C. and 5% CO2 for 4 days. Thereafter, 0.5 μCi/well of ^3 H-TdR was added. After 6 hours, the cells were harvested, and the amount of the ^3 H-TdR taken in the nuclei was measured by a liquid scintillation counter.

[6] = system: white blood cells; test: White blood cell count in monkey; type: in vivo, croo monkey; settings: for Number of White Blood Cells: mean ± SD
Procedure: Pharmacological Test 7: Blood-Platelet-Increasing Effect upon Monkey
Six croo monkeys (female, 3 to 5 years old, 2.3 to 2.8 kg), 2 monkeys in one group were used. A vehicle, 0.1 mg/body of the compound 33 or 1 mg/body of the compound 33 was intravenously administered to the monkeys. 6 and 9 days after the administration, blood was collected by using a blood-collecting tube EDTA-2K, and the numbers of blood platelets, white blood cells and red blood cells contained in the peripheral blood were measured by using an E-2500/cs. The results are shown in Tables 7-1, 7-2 and 7-3, respectively.

[7] = system: blood platelets; test: Thrombocytopenia-inhibiting effect in X-ray-irradiated mice; type: in vivo, mouse (BDF1); settings: 10 days after 5 Gy X-ray; 0.1 mg/kg i.v. within 2 h; mean ± SD; vehicle per series 10.3, 6.8, 6.7; non-treatment 68.2, 96.9, 73.0
In short: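 Female BDF1 mice, 6 weeks old, six per group, given 5 Gy whole-body X-ray, then 0.1 mg/kg i.v. via tail vein within 2 hours. Platelets counted by hemocytometer in fundus-vein blood 10 days later; untreated and vehicle groups run alongside.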

## CCCCCCCCCCCCCCCCCCCCCCCCCC(=O)N[C@@H](CO[C@H]1O[C@H](CO)[C@H](O)[C@H](O)[C@H]1O)[C@H](O)[C@H](O)CCCCCCCCCCCCCC [Compound 33, (2S,3S,4R)-1-(α-D-galactopyranosyloxy)-2-hexacosanoylamino-3,4-octadecanediol]
[1]; 10^-1 μg/ml
  activity at 0.1 µg/mL: 409%
[1]; 10^-2 μg/ml
  activity at 0.01 µg/mL: 256%
[1]; 10^-3 μg/ml
  activity at 0.001 µg/mL: 228%
[2]; 10 mg/kg i.v.
  death of rats: the rats did not die
[2]; i.v. 0.1, 1.0 or 10 mg/kg
  post-mortem examination: no abnormality was found
[2]; rat, in vivo, iv, male rats
  LD50 at 168 h: ≥ 10 mg/kg
[3]
  abnormality in body weight and in general condition: no abnormality in body weight and in general condition was found
[4]; day 10, controls per series 10, 10, 10, 10, 10, 8
  Number of Surviving Mice: 10 mice
[4]; day 15, controls per series 8, 9, 5, 5, 7, 1
  Number of Surviving Mice: 8 mice
[4]; day 20, controls per series 4, 5, 1, 2, 3, 0
  Number of Surviving Mice: 7 mice
[4]; day 25, controls per series 3, 3, 0, 0, 2, 0
  Number of Surviving Mice: 5 mice
[4]; day 30, controls per series 1, 1, 0, 0, 0, 0
  Number of Surviving Mice: 5 mice
[4]; day 35, all controls 0
  Number of Surviving Mice: 5 mice
[4]; day 40, all controls 0
  Number of Surviving Mice: 5 mice
[5]; 10^-1 μg/ml
  activity at 0.1 µg/mL: 177%
[5]; 10^-2 μg/ml
  activity at 0.01 µg/mL: 194%
[6]; 0.1 mg/body i.v., after 6 days, vehicle 91 ± 31
  Number of White Blood Cells: 156 ± 1 × 10^2 /μl
[6]; 0.1 mg/body i.v., after 9 days, vehicle 94 ± 57
  Number of White Blood Cells: 105 ± 15 × 10^2 /μl
[6]; 0.1 mg/body, 6 days after administration, equal to 1 mg/body
  white-blood-cell-increasing effect (in words): remarkable white-blood-cell-increasing effect
[6]; 1 mg/body i.v., after 6 days, vehicle 91 ± 31
  Number of White Blood Cells: 150 ± 37 × 10^2 /μl
[6]; 1 mg/body i.v., after 9 days, vehicle 94 ± 57
  Number of White Blood Cells: 169 ± 21 × 10^2 /μl
[7]
  Number of Blood Platelets: 23.9 ± 6.5 × 10^4 /μl
